{
  "source": "patent US20150250782A1",
  "about": "“Methods and Compositions for Hypotensive Resuscitation” (Pharmazz, Inc., priority 2012, published 2015)",
  "key": {"[1]": {"test_system": "hemorrhaged rats", "experiment": "Initial experiments in hemorrhaged rats with 0.45 mg/kg centhaquin", "format": "in vivo, rat", "description": "Initial experiments in hemorrhaged rats were performed with a 0.45 mg/kg dose of centhaquin. […] Centhaquin (0.45 mg/kg) produced a decrease in HR (beats/min) from 368±12 at hemorrhage, to 306±6, 309±6 and 274±11 at 30, 60 and 120 min, respectively, following resuscitation; cardiac output (mL) increased from 32±6 at hemorrhage, to 77±3, 74±4 and 62±5 at 30, 60 and 120 min, respectively, following resuscitation; while systemic vascular resistance (dynes*sec/cm5) was 84±4 at hemorrhage, and fell to 39±9, 42±9 and 45±6 at 30, 60 and 120 min, respectively, following resuscitation."}, "[2]": {"test_system": "hemorrhaged rats", "experiment": "Fixed-pressure hemorrhage model, centhaquin dissolved in LR (100% SBV)", "format": "in vivo, rat", "description": "In the studies disclosed below, a rodent model of fixed-pressure hemorrhage without tissue trauma was used. This model limits factors that can influence the activity of a drug that is being investigated for the first time as a resuscitation agent. This hemorrhage model was made more severe by maintaining the hypotension for 30 minutes from the onset of hemorrhage to reach a base deficit of greater than −12 mEq/L (Gulati, Sen et al. 1997). In this irreversible situation, compensatory mechanisms fail (decompensatory phase), and a tremendous decrease in blood flow to all organs occurs, causing hypoperfusion leading to tissue hypoxia and end-organ failure (Gulati, Sen et al. 1997).\nA rodent model of fixed-pressure hemorrhage without tissue trauma was used in a preliminary study. This hemorrhage model was made more severe by maintaining the hypotension for 30 min from the onset of hemorrhage to reach a base deficit of greater than −12 mEq/L (Gulati, Sen et al. 1997). […] Following groups were studied: Lactated Ringer's solution (LR-100) (100% shed blood volume (SBV)), or centhaquin (free base) (0.017, 0.05 and 0.15 mg/kg) dissolved in LR (100% SBV), or LR-300 (300% SBV)."}, "[3]": {"test_system": "dog femoral artery", "conditions": "10 and 20 μg locally into femoral artery; Srimal, Mason et al. 1990; cited from earlier work"}, "[4]": {"test_system": "urethane anesthetized rats and conscious freely moving cats and rats", "conditions": "0.05 to 0.2 mg/kg, iv; Srimal, Gulati et al. 1990; cited from earlier work"}, "[5]": {"conditions": "120 min following resuscitation"}, "[6]": {"conditions": "0.05 mg/kg, 60 min following resuscitation"}},
  "data": [
    {"smiles": "Cc1cccc(N2CCN(CCc3ccc4ccccc4n3)CC2)c1", "note": "[centhaquin, 2-[2-(4-(3-methyphenyl)-1-piperazinyl)ethyl]-quinoline]", "values": [
      {"measurement": "HR", "setting": "[1]; 30 min following resuscitation", "value": "306±6", "unit": "beats/min"},
      {"measurement": "MAP", "setting": "[1]; 30 min following resuscitation", "value": "38±4", "unit": "mmHg"},
      {"measurement": "cardiac output", "setting": "[1]; 30 min following resuscitation", "value": "77 ± 3", "unit": "mL"},
      {"measurement": "systemic vascular resistance", "setting": "[1]; 30 min following resuscitation", "value": "39±9", "unit": "dynes*sec/cm5"},
      {"measurement": "HR", "setting": "[1]; 60 min following resuscitation", "value": "309±6", "unit": "beats/min"},
      {"measurement": "MAP", "setting": "[1]; 60 min following resuscitation", "value": "39±4", "unit": "mmHg"},
      {"measurement": "cardiac output", "setting": "[1]; 60 min following resuscitation", "value": "74 ± 4", "unit": "mL"},
      {"measurement": "systemic vascular resistance", "setting": "[1]; 60 min following resuscitation", "value": "42±9", "unit": "dynes*sec/cm5"},
      {"measurement": "HR", "setting": "[1]; [5]", "value": "274±11", "unit": "beats/min"},
      {"measurement": "MAP", "setting": "[1]; [5]", "value": "35±4", "unit": "mmHg"},
      {"measurement": "cardiac output", "setting": "[1]; [5]", "value": "62 ± 5", "unit": "mL"},
      {"measurement": "systemic vascular resistance", "setting": "[1]; [5]", "value": "45±6", "unit": "dynes*sec/cm5"},
      {"measurement": "HR", "setting": "[1]; at hemorrhage", "value": "368±12", "unit": "beats/min"},
      {"measurement": "cardiac output", "setting": "[1]; at hemorrhage", "value": "32 ± 6", "unit": "mL"},
      {"measurement": "systemic vascular resistance", "setting": "[1]; at hemorrhage", "value": "84±4", "unit": "dynes*sec/cm5"},
      {"measurement": "decrease in systemic vascular resistance", "setting": "[2]; 0.017 mg/kg", "value": 57, "unit": "%"},
      {"measurement": "increase in MAP", "setting": "[2]; 0.017 mg/kg", "value": 55, "unit": "%"},
      {"measurement": "increase in cardiac output", "setting": "[2]; 0.017 mg/kg", "value": 260, "unit": "%"},
      {"measurement": "survival time", "setting": "[2]; 0.017 mg/kg in LR (100% SBV)", "value": "291 ± 57", "unit": "min"},
      {"measurement": "blood lactate levels", "setting": "[2]; 0.017 mg/kg, 60 min following resuscitation", "value": "3.55 ± 0.07", "unit": "mmol/L"},
      {"measurement": "decrease in systemic vascular resistance", "setting": "[2]; 0.05 mg/kg", "value": 41, "unit": "%"},
      {"measurement": "increase in cardiac output", "setting": "[2]; 0.05 mg/kg", "value": 180, "unit": "%"},
      {"measurement": "survival time", "setting": "[2]; 0.05 mg/kg in LR (100% SBV)", "value": "387 ± 39", "unit": "min"},
      {"measurement": "resuscitation compared to LR-300", "setting": "[2]; 0.05 mg/kg in LR-100 vs LR-300 (300% SBV)", "value": "more effective in resuscitation"},
      {"measurement": "blood lactate levels", "setting": "[2]; [6]", "value": "4.08 ± 0.28", "unit": "mmol/L"},
      {"measurement": "increase in MAP", "setting": "[2]; [6]", "value": 59, "unit": "%"},
      {"measurement": "blood flow", "setting": "[3]", "value": "increased blood flow"},
      {"measurement": "mean arterial pressure (MAP) and heart rate (HR)", "setting": "[4]", "value": "dose-dependent decrease"}
    ]}
  ]
}
